Test results taken from patent US20190008973A1, “INTRALIPID-IODINE FOR IMAGING” (priority 2017, published 2019).
“Also recorded” adds a separate entry of the source. Counter-ions that a name gives are not always drawn. Like-named read-outs stand apart in the source and are kept apart here.

Tests used:
PLA(2) and PLC = conditions: rat, in vivo; cited from earlier work
hippocampus = conditions: cited from earlier work
hippocampal slices = conditions: BADGE 100 microM, CHX 30 microM; cited from earlier work
spinal anaesthesia = conditions: spinal with 40 mg CP 1%; outpatient knee arthroscopy; versus general anaesthesia 142 min, P=0.0047; cited from earlier work
post operative delirium = test: Lipid Emulsion Treatment of post operative delirium/POCD, 4 case reports; assay type: in vivo, human; conditions: case 1, 60 min
[1] = tested on: post ischaemic stunned myocardium; conditions: dog, in vivo; cited from earlier work
[2] = tested on: ischemia-reperfusion (IR) injury; conditions: sham-operated hearts; cited from earlier work
[3] = tested on: ischemia/reperfusion injury; conditions: cited from earlier work
[4] = tested on: soft tissue anesthesia (STA); conditions: in vivo; cited from earlier work
[5] = tested on: cardiac and regional blood flow; conditions: propofol 4 mg/kg then 0.6 mg/kg/min; Intralipid 0.25 ml/kg then 0.06 ml/kg/min; cited from earlier work
[6] = tested on: propofol-mediated hypotension; conditions: cited from earlier work
oxygen desaturation = conditions: in vivo; cited from earlier work
[7] = tested on: I/R injury in late pregnancy; conditions: rat, in vivo; cited from earlier work
[8] = tested on: lipid-dependent mitochondrial respiration (carnitine exchange); conditions: cited from earlier work
clomipramine toxicity = conditions: 8 mL/kg 20% Intralipid or 2 mL/kg 8.4% sodium bicarbonate, n=4; cited from earlier work
[9] = tested on: bupivacaine cardiotoxicity; design: AUC of total bupivacaine, mean (standard deviation) / AUC of the lipid-un-entrapped bupivacaine portion: concentration or dose not given beside the values; conditions: cited from earlier work
[10] = tested on: bupivacaine-induced asystole; conditions: cited from earlier work
brachial plexus [11] = conditions: in vivo; cited from earlier work
spinal anesthesia = conditions: cited from earlier work
bupivacaine mortality = conditions: cited from earlier work
brachial plexus [12] = conditions: in vivo; cited from earlier work; remark: listed apart in the source
total spinal anesthesia [13] = conditions: in vivo; cited from earlier work
[14] = plasma-Intralipid mixture, n=3; cited from earlier work
total spinal anesthesia [15] = conditions: in vivo; cited from earlier work; remark: listed apart in the source
brachial plexus [16] = conditions: 30 ml, cited from earlier work
drug overdose = conditions: after lipid emulsion; cited from earlier work
brachial plexus [17] = conditions: 150 μg clonidine or 200 μg epinephrine with 0.25% bupivacaine; cited from earlier work
[18] = tested on: hemodynamic compromise owing to bupivacaine intoxication; conditions: epinephrine 3 μg/kg or Intralipid 20% 2 ml/kg; cited from earlier work
[19] = tested on: cardiac arrest caused by bupivacaine intoxication; conditions: epinephrine 10 μg/kg, Intralipid 20% 4 ml/kg, vasopressin 2 IU; cited from earlier work
[20] = tested on: levobupivacaine myocardial toxicity; conditions: pig, in vivo; cited from earlier work
brachial plexus [21] = conditions: in vivo; cited from earlier work; remark: listed apart in the source
[22] = tested on: N43 hypothalamic neuronal cells; conditions: cited from earlier work
postoperative delirium = conditions: postoperative analgesia; cited from earlier work
brachial plexus [23] = conditions: in vivo; cited from earlier work; remark: listed apart in the source
axillary plexus = conditions: in vivo; cited from earlier work
[24] = target: T1, ATPase of F1 particles from bovine heart mitochondria (Bos taurus, UniProt P00829+P19483); conditions: read-out: concentration required for 50% inhibition of ATPase activity; cited from earlier work
T1 construct: F1 particles isolated from bovine heart mitochondria; from tissue; host or cells: bovine heart mitochondria

[25] = tested on: spinal cord ischemia and reperfusion; conditions: intrathecal, cited from earlier work
mitochondrial ATPase = target: T2, mitochondrial ATPase (Homo sapiens, UniProt P06576+P25705); conditions: reciprocal plots; cited from earlier work
T2 construct: mitochondrial ATPase prepared by the chloroform extraction method; from tissue; host or cells: mitochondria

traumatic brain injury = conditions: cited from earlier work
[26] = tested on: cocaine- and cocaethylene-induced cardiac depression; conditions: 0.25% lipid emulsion or SBE-β-CD; cited from earlier work

For 4-bromophenylacyl bromide [BPB], the “FFA efflux during ischemia-reperfusion injury” value (PLA(2) and PLC) is listed as “significantly inhibited FFA efflux”.
In the case of `CCCCCC(O)C=CC=CCCCCCCCC(=O)O` (stereo not shown) [13-hydroxyoctadecadienoic acid], the “increase of somatic paired-pulse facilitation” value (hippocampus) is listed as 80%.
For `O=C1O/C(=C/Br)CCC1c1cccc2ccccc12` (stereo not shown) [BEL, bromoenol lactone], the “FFA efflux during ischemia-reperfusion injury” value (PLA(2) and PLC) is given as “had only minimal effects on FFA efflux”.
In the case of `C[C@@H]1C[C@@H]([C@H](O)CC2CC(=O)NC(=O)C2)C(=O)[C@@H](C)C1` [CHX, cycloheximide], the “effect on neuroprotection by arachidonic acid” value (hippocampal slices) is given as “completely abolished”.
For `CCN(CC)CCOC(=O)c1ccc(N)cc1Cl` [CP 1%, Chloroprocaine], the “Time to reaching discharge criteria” value (spinal anaesthesia) is listed as 117 min.
With `O=C(CCCN1CCC(O)(c2ccc(Cl)cc2)CC1)c1ccc(F)cc1` [Haloperidol] the “agitation after conventional sedatives” value (post operative delirium) was “had not improved”.
For `N[C@H](C(=O)O)c1ccc(O)cc1` [Oxfenicine, oxfenicine], the “effect of pretreatment on benefit of Intralipid” value [1] is listed as “completely abolished”.
For `COc1cccc(-c2cc(=O)c3ccccc3o2)c1N` [PD98059], the “effect of inhibitor on infarct-sparing effect of ILP” value [2] is given as “only partially” and the “effect of inhibitor on Intralipid-induced cardioprotection” value [3] is given as “only partially”.
For `Cc1ccc(N(CC2=NCCN2)c2cccc(O)c2)cc1` [PM (OraVerse), phentolamine mesylate], the “duration of residual STA” value [4] is listed as “significantly decrease the duration of residual STA” and the “safety outcomes in school-based dental clinic” value [4] is listed as “improve safety outcomes”.
In the case of `CC(C)c1cccc(C(C)C)c1O` [Propofol, propofol], the “cardiac and regional hemodynamic changes” value [5] is listed as “increases in heart rate, coronary and carotid blood flows, and decreases in systemic vascular resistance and dP/dt”, the “drop in MAP” value ([6]; 10 mg/kg IV) is listed as 55+/−2% and the “lowering of MAP” value ([6]; under chlorisondamine and phenylephrine) is listed as 12+/−4%. For the same molecule, the “odds ratio for oxygen desaturation” value (oxygen desaturation) was 5.22 (95% CI 1.78-15.35).
In the case of `O=[N+]([O-])c1ccc2c(c1)S(=O)(=O)C=C2` [Stattic], the “effect of inhibitor on ITLD-induced cardioprotection” value [7] is given as “fully abolished”.
For `COc1ccc2c(c1)CC[C@@H]1[C@@H]2CC[C@]2(C)[C@@H](NCCCCCCN3C(=O)C=CC3=O)CC[C@@H]12` [U73122], the “FFA efflux during ischemia-reperfusion injury” value (PLA(2) and PLC) is given as “had no observed effect”.
For `CN1[C@H]2CC[C@@H]1[C@@H](C(=O)O)[C@@H](OC(=O)c1ccccc1)C2` [benzoylecgonine], the lipid-dependent mitochondrial respiration [8] is listed as “not”.
For `O=C([O-])O.[Na+]` [bicarbonate, sodium bicarbonate], the “circulation in second phase (severe toxicity)” value (clomipramine toxicity) is given as “developed pulseless electrical activity”.
For `CCCCN1CCCCC1C(=O)Nc1c(C)cccc1C` (stereo not shown) [bupivacaine], the “AUC of the lipid-un-entrapped bupivacaine portion” value ([9]; after Intralipid) is given as 97.0(14.5) mg·min/L, the “AUC of total bupivacaine, mean (standard deviation)” value ([9]; after Intralipid) is given as 105.2(13.6) mg·min/L and the “un-entrapped AUC lower than total bupivacaine” value ([9]; after Intralipid) is given as 8%. For the same molecule, the “AUC of total bupivacaine, mean (standard deviation)” value ([9]; after Ringer's acetate) was 88.1(7.1) mg·min/L, the “concentration of bupivacaine in plasma, mean+/−SE” value ([10]; 30% Intralipid) was 212+/−45 micrograms per millilitre and the “median dose of bupivacaine producing asystole” value ([10]; after saline pretreatment) was 17.7 milligrams per kilogram. The “concentration of bupivacaine in plasma, mean+/−SE” value ([10]; saline) was 93.3+/−7.6 micrograms per millilitre, the patients requiring supplementation (brachial plexus [11]) was 9 of the 22 and the “Duration of procedures it is appropriate for” value (spinal anesthesia; long acting spinal anesthetic) was 2 to 2.5 h. For the same molecule, the Onset (spinal anesthesia; spinal anesthetic, longer with isobaric forms) was 5 to 10 min, the “dose of bupivacaine required to cause death in 50% of animals” value (bupivacaine mortality; resuscitation with 30% Intralipid) was 18.5 mg/kg and the “dose of bupivacaine required to cause death in 50% of animals” value (bupivacaine mortality; resuscitation with saline) was 12.5 mg/kg. The “muscle relaxation judged as excellent” value (brachial plexus [12]) was 30/49, the “mean duration of action” value (total spinal anesthesia [13]) was 1.511 to 3 h and the “mean lipid:aqueous ratio of concentrations” value [14] was 11.9+/−1.77. The “further time to consciousness” value (total spinal anesthesia [15]) was 65 min, the “time to spontaneous respiration” value (total spinal anesthesia [15]) was 120 min and the “duration of motor block” value (brachial plexus [16]) was 12.94 h. For the same molecule, the “duration of sensory block” value (brachial plexus [16]) was 11.58 h, the “onset of motor block” value (brachial plexus [16]) was 21.45 ± 4.45 min and the “onset of sensory block” value (brachial plexus [16]) was 16.85 ± 6.67 min.
In the case of `Cn1c(=O)c2c(ncn2C)n(C)c1=O` [caffeine], the plasma caffeine level (drug overdose) is given as greater than 120 mg/L.
In the case of `Clc1cccc(Cl)c1N=C1NCCN1` [clonidine, clonidine hydrochloride], the duration of block (brachial plexus [17]) is listed as 994.2 ± 34.2 min.
For `CCOC(=O)[C@@H]1C2CCC(C[C@@H]1OC(=O)c1ccccc1)N2C` (stereo partly shown) [cocaethylene], the lipid-dependent mitochondrial respiration [8] is given as “inhibited”.
For `CNC[C@H](O)c1ccc(O)c(O)c1` [epinephrine], the duration of block (brachial plexus [17]) is given as 728.3 ± 35.8 min, the survival [18] is given as 100% and the survival [19] is given as 71%.
In the case of `CCCCN1CCCC[C@H]1C(=O)Nc1c(C)cccc1C` [levobupivacaine], the “haemodynamic effects of IV injection” value [20] is listed as “induced sinus bradycardia and reduced dMAP and LV dP/dtmax” and the “need for rescue analgesics” value (brachial plexus [21]) is listed as 55%.
In the case of `CCCCC/C=C\C/C=C\CCCCCCCC(=O)O` [linoleic acid], the palmitic acid-induced inflammation [22] is listed as “reduces palmitic acid-induced inflammation”.
For `CCOC(=O)C1(c2ccccc2)CCN(C)CC1` [meperidine], the delirium incidence (postoperative delirium) is given as “significantly higher”.
In the case of `Cc1ncc2n1-c1ccc(Cl)cc1C(c1ccccc1F)=NC2` [midazolam], the “agitation after conventional sedatives” value (post operative delirium) is reported as “had not improved”.
In the case of `CCCN1CCCC[C@H]1C(=O)Nc1c(C)cccc1C` [ropivacaine], the “duration of motor blocks” value (brachial plexus [23]) is listed as 12±5, the “duration of sensorial analgesia” value (brachial plexus [23]) is listed as 13.4±6 and the patients requiring supplementation (brachial plexus [11]) is listed as 8 of the 22. The “muscle relaxation judged as excellent” value (brachial plexus [12]) was 35/49, the “need for rescue analgesics” value (brachial plexus [21]) was 65% and the “duration of motor block” value (brachial plexus [16]; listed as 0.5% ropivacaine) was 8.29 h. The “duration of sensory block” value (brachial plexus [16]; listed as 0.5% ropivacaine) was 9.02 h, the “onset of motor block” value (brachial plexus [16]; listed as 0.5% ropivacaine) was 22.23 ± 4.05 min and the “onset of sensory block” value (brachial plexus [16]; listed as 0.5% ropivacaine) was 17.79 ± 5.03 min. The “duration of motor block” value (brachial plexus [16]; listed as 0.75% ropivacaine) was 7.89 h, the “duration of sensory block” value (brachial plexus [16]; listed as 0.75% ropivacaine) was 8.87 h and the “onset of motor block” value (brachial plexus [16]; listed as 0.75% ropivacaine) was 22.33 ± 5.17 min. The “onset of sensory block” value (brachial plexus [16]; listed as 0.75% ropivacaine) was 18.48 ± 6.14 min and the “mean time of block offset” value (axillary plexus) was 13.5 h.
For `CCCCNc1ccc(C(=O)OCCN(C)C)cc1` [tetracaine], the IC50 [24] is given as 1100 µM, the neurologically normal animals ([25]; aortic occlusion 25 minutes) is given as 100% and the neurologically normal animals ([25]; aortic occlusion 30 minutes) is given as 86%. The kind of inhibition (mitochondrial ATPase) was “non-competitive”.
In the case of conjugated linoleic acids [CLA], the “latency to find the hidden MWM platform” value (traumatic brain injury; CCI-injured, saline 30.7±5.5) is given as 66.8 ± 10.6 s and the “latency to find the hidden Morris Water Maze platform” value (traumatic brain injury; Sham, saline 8.8±1.7) is given as 40.3 ± 13.0 s.
In the case of ecgonine, the lipid-dependent mitochondrial respiration [8] is given as “not”.
For “sulfobutylether-β-cyclodextrin [SBE-β-CD]”, the “cardiac depression in Langendorff hearts” value [26] is given as “mild cardio depressant effect; also recorded: mild cardiodepressant effect”.
